From PubChem BioAssay (NCI)
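Interpolation was linear, between the two tested concentrations surrounding the appropriate level; five concentrations were tested over 48 hours in 96-well plates. Definition used: TGI = concentration required for complete inhibition of growth.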

Tests used:
Experiment in all cases: NCI tumour cell line growth inhibition, 48 h
[1] = system: HT29 colon
[2] = system: SF-268 CNS
[3] = system: NCI-H522 lung
[4] = system: BT-549 breast
[5] = system: OVCAR-5 ovarian
[6] = system: HCT-116 colon
[7] = system: IGROV1 ovarian
[8] = system: SK-MEL-2 melanoma
[9] = system: MDA-MB-231 breast
[10] = system: HOP-92 NSCLC
[11] = system: CCRF-CEM leukemia
[12] = system: NCI-H226 lung
[13] = system: OVCAR-4 ovarian
[14] = system: RPMI-8226 leukemia
[15] = system: ACHN renal
[16] = system: SF-295 CNS
[17] = system: HL-60(TB) leukemia
[18] = system: A498 renal
[19] = system: NCI/ADR-RES ovarian
[20] = system: EKVX NSCLC
[21] = system: MALME-3M melanoma
[22] = system: PC-3 prostate
[23] = system: HCT-15 colon
[24] = system: LOX IMVI melanoma
[25] = system: SR leukemia
[26] = system: MDA-MB-435
[27] = system: COLO 205 colon
[28] = system: UO-31 renal
[29] = system: MDA-N
[30] = system: CAKI-1 renal
[31] = system: SN12C renal
[32] = system: RXF 393 renal
[33] = system: UACC-257 melanoma
[34] = system: T-47D breast
[35] = system: OVCAR-8 ovarian
[36] = system: TK-10 renal
[37] = system: A549 NSCLC
[38] = system: NCI-H23 lung
[39] = system: SNB-19 CNS
[40] = system: SF-539 CNS
[41] = system: SK-MEL-28 melanoma
[42] = system: SNB-75 CNS
[43] = system: 786-0 renal
[44] = system: NCI-H460 lung
[45] = system: OVCAR-3 ovarian
[46] = system: KM12 colon
[47] = system: SK-MEL-5 melanoma
[48] = system: HOP-62 NSCLC
[49] = system: K-562 leukemia
[50] = system: MOLT-4 leukemia
[51] = system: SW-620 colon
[52] = system: SK-OV-3 ovarian
[53] = system: U251 CNS
[54] = system: HS 578T breast
[55] = system: HCC-2998 colon
[56] = system: UACC-62 melanoma
[57] = system: MCF7 breast
[58] = system: DU-145 prostate
[59] = system: M14 melanoma

## Nc1cc2[nH]c(=O)c(=O)[nH]c2cc1N
[1]
  TGI: > 100 µM
[2]
  TGI: > 100 µM
[3]
  TGI: > 100 µM
[4]
  TGI: > 100 µM
[5]
  TGI: > 100 µM
[6]
  TGI: > 100 µM
[7]
  TGI: > 100 µM
[8]
  TGI: > 100 µM
[9]
  TGI: > 100 µM
[10]
  TGI: > 100 µM
[11]
  TGI: > 100 µM
[12]
  TGI: > 100 µM
[13]
  TGI: > 100 µM
[14]
  TGI: > 100 µM
[15]
  TGI: > 100 µM
[16]
  TGI: > 100 µM
[17]
  TGI: > 100 µM
[18]
  TGI: > 100 µM
[19]
  TGI: > 100 µM
[20]
  TGI: > 100 µM
[21]
  TGI: > 100 µM
[22]
  TGI: > 100 µM
[23]
  TGI: > 100 µM
[24]
  TGI: > 100 µM
[25]
  TGI: > 100 µM
[26]
  TGI: > 100 µM
[27]
  TGI: > 100 µM
[28]
  TGI: > 100 µM
[29]
  TGI: > 100 µM
[30]
  TGI: > 100 µM
[31]
  TGI: > 100 µM
[32]
  TGI: > 100 µM
[33]
  TGI: > 100 µM
[34]
  TGI: > 100 µM
[35]
  TGI: > 100 µM
[36]
  TGI: > 100 µM
[37]
  TGI: > 100 µM
[38]
  TGI: > 100 µM
[39]
  TGI: > 100 µM
[40]
  TGI: > 100 µM
[41]
  TGI: > 100 µM
[42]
  TGI: > 100 µM
[43]
  TGI: > 100 µM
[44]
  TGI: > 100 µM
[45]
  TGI: > 100 µM
[46]
  TGI: > 100 µM
[47]
  TGI: > 100 µM
[48]
  TGI: > 100 µM
[49]
  TGI: > 100 µM
[50]
  TGI: > 100 µM
[51]
  TGI: > 100 µM
[52]
  TGI: > 100 µM
[53]
  TGI: > 100 µM
[54]
  TGI: > 100 µM
[55]
  TGI: > 100 µM
[56]
  TGI: > 100 µM
[57]
  TGI: > 100 µM
[58]
  TGI: > 100 µM

## N=C(N)c1ccc(C(NC(=O)CNS(=O)(=O)c2ccc3ccccc3c2)P(=O)(Oc2ccccc2)Oc2ccccc2)cc1 (stereo not drawn)
[1]
  TGI: > 100 µM
[2]
  TGI: > 100 µM
[3]
  TGI: > 100 µM
[4]
  TGI: 66.2 µM
[5]
  TGI: > 100 µM
[6]
  TGI: > 100 µM
[7]
  TGI: > 100 µM
[8]
  TGI: > 100 µM
[9]
  TGI: > 100 µM
[10]
  TGI: > 100 µM
[11]
  TGI: > 100 µM
[12]
  TGI: 38.8 µM
[13]
  TGI: > 100 µM
[14]
  TGI: > 100 µM
[15]
  TGI: > 100 µM
[17]
  TGI: > 100 µM
[19]
  TGI: > 100 µM
[21]
  TGI: > 100 µM
[22]
  TGI: > 100 µM
[23]
  TGI: > 100 µM
[24]
  TGI: > 100 µM
[25]
  TGI: > 100 µM
[26]
  TGI: > 100 µM
[27]
  TGI: > 100 µM
[28]
  TGI: > 100 µM
[29]
  TGI: > 100 µM
[30]
  TGI: > 100 µM
[31]
  TGI: > 100 µM
[32]
  TGI: > 100 µM
[33]
  TGI: > 100 µM
[34]
  TGI: > 100 µM
[35]
  TGI: > 100 µM
[37]
  TGI: > 100 µM
[38]
  TGI: > 100 µM
[39]
  TGI: > 100 µM
[40]
  TGI: 71.3 µM
[41]
  TGI: > 100 µM
[42]
  TGI: > 100 µM
[43]
  TGI: > 100 µM
[44]
  TGI: > 100 µM
[59]
  TGI: > 100 µM
[45]
  TGI: > 100 µM
[46]
  TGI: > 100 µM
[47]
  TGI: > 100 µM
[48]
  TGI: > 100 µM
[49]
  TGI: > 100 µM
[50]
  TGI: 92.4 µM
[51]
  TGI: > 100 µM
[52]
  TGI: > 100 µM
[53]
  TGI: > 100 µM
[54]
  TGI: > 100 µM
[55]
  TGI: > 100 µM
[56]
  TGI: > 100 µM
[57]
  TGI: > 100 µM
[58]
  TGI: > 100 µM

## O=C(O)c1ccc([N+](=O)[O-])c2cc3cnccc3nc12
[1]
  TGI: 57.3 µM
[3]
  TGI: 32.4 µM
[4]
  TGI: 33.5 µM
[5]
  TGI: 76.9 µM
[6]
  TGI: 33 µM
[7]
  TGI: > 100 µM
[8]
  TGI: 38.9 µM
[9]
  TGI: 36.2 µM
[10]
  TGI: 45.8 µM
[11]
  TGI: 9.03 µM
[12]
  TGI: 61.6 µM
[14]
  TGI: > 100 µM
[16]
  TGI: > 100 µM
[17]
  TGI: > 100 µM
[18]
  TGI: > 100 µM
[19]
  TGI: 80.9 µM
[21]
  TGI: 42.2 µM
[22]
  TGI: 34.6 µM
[23]
  TGI: 45 µM
[25]
  TGI: > 100 µM
[26]
  TGI: > 100 µM
[27]
  TGI: 40.4 µM
[28]
  TGI: 43.7 µM
[29]
  TGI: 51.3 µM
[31]
  TGI: 32.8 µM
[32]
  TGI: 74.1 µM
[34]
  TGI: 58.6 µM
[35]
  TGI: 48.9 µM
[38]
  TGI: 62.9 µM
[41]
  TGI: 34.8 µM
[42]
  TGI: 34.2 µM
[44]
  TGI: > 100 µM
[59]
  TGI: 37.2 µM
[45]
  TGI: 36.4 µM
[46]
  TGI: 44.4 µM
[47]
  TGI: 38.4 µM
[48]
  TGI: > 100 µM
[49]
  TGI: 36.5 µM
[50]
  TGI: 29.7 µM
[52]
  TGI: > 100 µM
[53]
  TGI: 35.6 µM
[54]
  TGI: 65.6 µM
[55]
  TGI: 50.3 µM
[56]
  TGI: 24.8 µM
[57]
  TGI: 38.7 µM
[58]
  TGI: > 100 µM

## CCOC(=O)c1cc(C(O)P2(=O)N(CC(C)(C)C)[C@@H]3CCCC[C@H]3N2CC(C)(C)C)cn1C(=O)OC(C)(C)C (stereo partly drawn)
[1]
  TGI: 26.7 µM
[2]
  TGI: 38.4 µM
[3]
  TGI: 31.1 µM
[4]
  TGI: 31.9 µM
[5]
  TGI: 41.6 µM
[6]
  TGI: 23.2 µM
[7]
  TGI: 18.1 µM
[8]
  TGI: 32.8 µM
[9]
  TGI: 31.4 µM
[12]
  TGI: 39.4 µM
[13]
  TGI: 77.7 µM
[14]
  TGI: 29.8 µM
[15]
  TGI: > 100 µM
[16]
  TGI: 32 µM
[17]
  TGI: 48.6 µM
[18]
  TGI: 65.3 µM
[19]
  TGI: 44.6 µM
[20]
  TGI: 55.6 µM
[21]
  TGI: 33.6 µM
[22]
  TGI: 48.5 µM
[23]
  TGI: 36 µM
[24]
  TGI: 31.4 µM
[25]
  TGI: 25.6 µM
[26]
  TGI: 27 µM
[27]
  TGI: 31.4 µM
[28]
  TGI: 28.7 µM
[29]
  TGI: 28 µM
[30]
  TGI: 51 µM
[31]
  TGI: 27.5 µM
[32]
  TGI: 26.6 µM
[33]
  TGI: 28.7 µM
[34]
  TGI: > 100 µM
[35]
  TGI: 47.1 µM
[36]
  TGI: 57.3 µM
[37]
  TGI: 38.8 µM
[38]
  TGI: 68.3 µM
[39]
  TGI: 46.2 µM
[41]
  TGI: 30.3 µM
[43]
  TGI: 31 µM
[59]
  TGI: 29.7 µM
[45]
  TGI: 25 µM
[46]
  TGI: 29.2 µM
[47]
  TGI: 31.3 µM
[48]
  TGI: 28.1 µM
[49]
  TGI: 47 µM
[50]
  TGI: 34 µM
[51]
  TGI: 32.6 µM
[52]
  TGI: 59.2 µM
[53]
  TGI: 29.4 µM
[54]
  TGI: 36.1 µM
[55]
  TGI: 29.7 µM
[56]
  TGI: 28.6 µM
[57]
  TGI: 51 µM
[58]
  TGI: 36.2 µM
